According to paper PMC6270892, “Penostatin Derivatives, a Novel Kind of Protein Phosphatase 1B Inhibitors Isolated from Solid Cultures of the Entomogenous Fungus Isaria tenuipes” (Molecules, 2014):
Like-named read-outs stand apart in the source and are kept apart here.

What was measured:
PTP1B [1] = biological target: T1, PTP1B (Homo sapiens, UniProt P18031); experiment: PTP1B inhibition assay (pNPP hydrolysis / Malachite Green); assay type: biochemical; details: for IC50: mean ± SD of three replicates; for selectivity between PTP1B and LAR: PTP1B versus LAR, in words
T1 sequence (P18031 1-435): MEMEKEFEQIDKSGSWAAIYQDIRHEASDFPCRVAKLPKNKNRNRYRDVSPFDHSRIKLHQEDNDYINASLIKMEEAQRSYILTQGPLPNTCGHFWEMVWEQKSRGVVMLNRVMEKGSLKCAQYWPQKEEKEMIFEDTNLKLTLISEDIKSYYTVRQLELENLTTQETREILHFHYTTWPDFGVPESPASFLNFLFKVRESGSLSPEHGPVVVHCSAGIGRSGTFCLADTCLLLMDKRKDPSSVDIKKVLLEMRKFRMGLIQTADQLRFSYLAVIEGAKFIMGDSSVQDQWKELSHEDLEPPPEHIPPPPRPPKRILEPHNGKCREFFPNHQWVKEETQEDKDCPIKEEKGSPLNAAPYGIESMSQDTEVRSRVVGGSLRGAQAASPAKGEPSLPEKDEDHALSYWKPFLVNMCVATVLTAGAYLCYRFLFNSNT
Description: PTP1B activity was measured as the rate of hydrolysis of p-nitrophenyl phosphate (pNPP) in a 96-well microtiter plate format. […] Inhibitors were added in DMSO at 100 times the final concentration. PTP1B activity was measured as the rate of inorganic phosphate released upon hydrolysis of the IR phosphopeptide, TRDIpYETDpYpYRK, using a Malachite Green method. The enzyme activity was estimated by measuring the absorbance at 405 nm with appropriate corrections. Each experiment was performed either in triplicate, and IC50 data were derived from three independent experiments.
(§1) Calculations. PTPase activities, based on a potassium phosphate standard curve, were expressed as nanomoles of phosphate released/min/mg protein. Inhibition of recombinant h-PTP1B by test compounds was calculated as percent of phosphatase control. A four-parameter nonlinear logistic regression of PTPase activities using SAS release 6.08, PROC NLIN, was used for determining IC50 values of the test compounds.

LAR = LAR (Homo sapiens, UniProt P10586); experiment: LAR phosphatase inhibition assay; assay type: biochemical
LAR, sequence (P10586 30-1907, species assumed): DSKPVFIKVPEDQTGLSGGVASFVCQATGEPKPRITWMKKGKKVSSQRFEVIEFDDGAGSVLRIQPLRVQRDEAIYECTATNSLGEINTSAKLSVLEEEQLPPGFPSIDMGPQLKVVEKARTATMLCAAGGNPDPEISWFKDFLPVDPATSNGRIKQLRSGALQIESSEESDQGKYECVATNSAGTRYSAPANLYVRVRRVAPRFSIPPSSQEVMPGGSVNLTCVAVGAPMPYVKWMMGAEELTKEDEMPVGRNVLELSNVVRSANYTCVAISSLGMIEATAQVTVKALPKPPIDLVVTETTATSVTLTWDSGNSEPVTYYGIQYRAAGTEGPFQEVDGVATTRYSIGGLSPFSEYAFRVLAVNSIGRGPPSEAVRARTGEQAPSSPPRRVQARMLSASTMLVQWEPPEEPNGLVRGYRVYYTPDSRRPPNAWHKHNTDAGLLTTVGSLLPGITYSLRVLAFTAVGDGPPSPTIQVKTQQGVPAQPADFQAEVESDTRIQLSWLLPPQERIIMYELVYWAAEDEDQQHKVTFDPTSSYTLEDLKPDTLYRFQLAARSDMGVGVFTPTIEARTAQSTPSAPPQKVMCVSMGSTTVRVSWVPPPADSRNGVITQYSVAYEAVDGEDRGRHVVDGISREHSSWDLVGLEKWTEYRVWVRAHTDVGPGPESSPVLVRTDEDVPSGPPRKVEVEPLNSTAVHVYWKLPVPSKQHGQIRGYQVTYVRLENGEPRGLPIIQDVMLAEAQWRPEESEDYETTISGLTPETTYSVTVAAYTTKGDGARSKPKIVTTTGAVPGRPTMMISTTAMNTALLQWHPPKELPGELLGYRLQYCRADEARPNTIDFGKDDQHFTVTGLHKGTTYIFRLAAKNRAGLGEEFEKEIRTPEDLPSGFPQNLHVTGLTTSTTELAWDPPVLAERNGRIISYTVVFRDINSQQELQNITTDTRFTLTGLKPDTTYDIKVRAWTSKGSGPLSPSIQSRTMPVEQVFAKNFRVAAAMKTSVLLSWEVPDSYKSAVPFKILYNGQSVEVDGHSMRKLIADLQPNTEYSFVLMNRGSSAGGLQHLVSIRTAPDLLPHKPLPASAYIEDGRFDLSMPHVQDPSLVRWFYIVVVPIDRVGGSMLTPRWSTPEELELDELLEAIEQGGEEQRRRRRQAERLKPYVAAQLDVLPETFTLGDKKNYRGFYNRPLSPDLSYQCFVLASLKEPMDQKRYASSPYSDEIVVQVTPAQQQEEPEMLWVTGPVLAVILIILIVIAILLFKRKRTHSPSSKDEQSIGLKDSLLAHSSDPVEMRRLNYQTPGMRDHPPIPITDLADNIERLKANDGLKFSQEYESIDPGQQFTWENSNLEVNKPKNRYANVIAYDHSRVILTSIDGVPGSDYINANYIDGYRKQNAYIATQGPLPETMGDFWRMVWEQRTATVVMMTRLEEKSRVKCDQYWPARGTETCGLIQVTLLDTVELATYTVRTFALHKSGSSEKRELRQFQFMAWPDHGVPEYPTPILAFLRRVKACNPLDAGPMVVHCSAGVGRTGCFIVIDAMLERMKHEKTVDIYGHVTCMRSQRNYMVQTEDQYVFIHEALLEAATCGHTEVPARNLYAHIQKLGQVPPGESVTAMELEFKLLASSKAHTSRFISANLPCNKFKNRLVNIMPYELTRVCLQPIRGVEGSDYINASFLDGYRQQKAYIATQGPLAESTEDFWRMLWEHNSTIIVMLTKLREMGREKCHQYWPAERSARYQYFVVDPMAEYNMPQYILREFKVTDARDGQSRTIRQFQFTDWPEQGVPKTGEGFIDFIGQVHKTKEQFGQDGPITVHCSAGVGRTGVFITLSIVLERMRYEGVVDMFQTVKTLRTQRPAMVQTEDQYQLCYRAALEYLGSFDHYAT
Description: PTP1B activity was measured as the rate of hydrolysis of p-nitrophenyl phosphate (pNPP) in a 96-well microtiter plate format. Standard assays were conducted at room temperature in a total volume of 0.2 mL that contained HEPES buffer (50 mM, pH 7.2), NaCl (50 mM), EDTA (1 mM), DTT (1 mM), bovine serum albumin (1 mg/mL), pNPP (at various concentrations, Km) 1.4 (0.03 mM), and PTP1B (35 ng/mL). Sodium orthovanadate was used as the positive control. Inhibitors were added in DMSO at 100 times the final concentration. PTP1B activity was measured as the rate of inorganic phosphate released upon hydrolysis of the IR phosphopeptide, TRDIpYETDpYpYRK, using a Malachite Green method. The enzyme activity was estimated by measuring the absorbance at 405 nm with appropriate corrections. Each experiment was performed either in triplicate, and IC50 data were derived from three independent experiments.
Activities of LAR were measured as described above except that the HEPES buffer (50 mM) was at pH 6.8, and the enzyme was added at a concentration of 10 μg/mL. Activity of calcineurin (from Sigma Chemical Co.) was assayed using 4-methylumbelliferyl phosphate (0.8 mM) as a substrate in an assay mixture that contained Tris-HCl buffer (40 mM, pH 8.6), NaCl (100 mM), CaCl2 (0.5 mM), DTT (0.5 mM), bovine serum albumin (0.1 mg/mL), calmodulin (50 nM), and calcineurin (25 nM). Sodium orthovanadate was used as the positive control. Fluorescence at 450 nm was monitored with excitation at 400 nm. The color was allowed to develop at room temperature for 30 min, and the sample absorbances were determined at 650 nm using a plate reader (Molecular Devices, Sunnyvale, CA, USA). Each experiment was performed either in triplicate, and IC50 data were derived from three independent experiments.
as §1, with “compounds. The reported IC50 values show significant fit to the regression curve (p < 0.05).” for “compounds.”

PTP1B [2] = system: PTP1B; set-up: method as in PMID 20337577; details: cited from earlier work
[3] = tested at 50 μg/mL, read-out: LAR inhibition

| Compound | IC50 (PTP1B [1]) [µM] | IC50 (LAR; [3]) [µM] | selectivity between PTP1B and LAR (PTP1B [1]) | IC50 (LAR; mean ± SD of three replicates, read-out: IC50 (μM) LAR) [µM] | IC50 (PTP1B [2]) [µM] |
| --- | --- | --- | --- | --- | --- |
| CCCCCCC/C=C/[C@@H]1O[C@@]2(O)C(=O)C=C3C=CC[C@H]3[C@@H]2C=C1C [Compound 1, penostatin J] | 12.5 ± 0.9 | > 146 | significant selectivity | – | – |
| CCCCCCC/C=C/[C@@H]1O[C@H]2C(=O)C=C3C=CC[C@H]3[C@@H]2C=C1C [Compound 2, penostatin C] | 0.37 ± 0.05 | – | significant selectivity | 53.3 ± 4.06 | – |
| Cc1cc(-c2c3ccccc3c(Br)c3sc(C)c(C)c23)cc(C)c1O[C@H](Cc1ccccc1)C(=O)O [ertiprotafib] | – | – | – | – | 1.6 |

Continued, in another order:

| IC50 (PTP1B [1]) [µM] | IC50 (LAR; [3]) [µM] | selectivity between PTP1B and LAR (PTP1B [1]) | IC50 (LAR; mean ± SD of three replicates, read-out: IC50 (μM) LAR) [µM] | Compound | IC50 (PTP1B [2]) [µM] |
| --- | --- | --- | --- | --- | --- |
| 33.7 ± 7.33 | > 145 | – | – | CCCCCCC/C=C/[C@@H]1O[C@H]2C(=O)C=C3C[C@@H](O)C[C@H]3[C@@H]2C=C1C [Compound 4, penostatin B] | – |
| 15.9 ± 2.49 | > 145 | – | – | CCCCCCC/C=C/[C@@H]1O[C@H]2C(=O)C=C3C[C@H](O)C[C@H]3[C@@H]2C=C1C [Compound 3, penostatin A] | – |
